Laboratory results taken from patent publication US5723491A, “Fungicidal composition and method of controlling fungus infestation” (Novartis Corporation, priority 1994, dated 1998).
“And” between values parts separate entries of the source, which are not always exact repeats. Equal values may be shown once. Read-outs that look alike come from different tables or passages of the source.

Experiments:
[1] = tested on: metalaxyl-sensitive strain of Plasmopara viticola; test: Foliar spray on vine plantlets infected with Plasmopara viticola (two-leaf and three-leaf stage sprayings); assay type: in vivo
Experimental: Vine plantlets cv. "Gutedel" are grown under greenhouse conditions using one plant per pot (.O slashed.=6 cm) and sprayed with a spray broth prepared from an emulsion concentrate, either in the two-leaf stage or in the three-leaf stage. The following concentrations of active ingredient are used per batch of 4 plants: 200; 60; 20; 6; 2; 0.6; 0.2; 0.06 mg of a.i./liter. This dilution series is prepared in demineralized water immediately prior to application as a foliar spray. To exclude a gas-phase effect of the a.i. in the vicinity, all plants are separated from each other on the side using translucent plastic foils and kept in the dark for one day at 20°-22° C. and a relative humidity of approximately 100%.
Then, the entire leaf surface area of the plants is uniformly sprayed to drip point with a freshly prepared sporangia suspension (120 000/ml) of a metalaxyl-sensitive strain of Plasmopara viticola. The plants are then kept for 7 days under a 16 hour photoperiod with artificial daylight at 20°-22° C. and a relative humidity of approximately 100%. This is followed by evaluation of the infestation, separating three-leaf and two-leaf stage sprayings. The tables show in each case the average of 4 parallel sprayings.

[2] = Degradation behaviour in moderately heavy soil (silt/loam) under laboratory conditions
Experimental: Degradation Behaviour of Racemic Metalaxyl and R-metalaxyl in Moderately Heavy Soil
Two groups of 8 samples each of biologically active soil (silt/loam; loam: 13.9%; silt: 54.3%; sand: 31.8%; organic carbon: 2.1%; pH 7.3; biomass: 65.1 mg microbial carbon per 100 g soil; origin: Les Evouettes, Valais, Switzerland) are treated in parallel with racemic metalaxyl or R-metalaxyl, respectively, in each case in acetonic solution. The rate of application is 0.5 mg/kg of soil sample, which corresponds to a rate of application of 0.5 kg/hectare. The results are evaluated in duplicate after 0, 7, 14 and 21 days.

[3] = Degradation behaviour in sandy soil under laboratory conditions; set-up: degradation equation Ct, rate constant in exponent: unit: 1/day; details: sand
Experimental: Degradation Behaviour of Racemic Metalaxyl and R-metalaxyl in Sandy Soil
Two groups of 16 samples each of biologically active soil (sandy soil; loam: 5.1%; silt: 11.4%; sand: 83.5%; organic carbon: 1.6%; pH 4; biomass: 51 mg microbial carbon/100 g soil; origin: Collombey, Valais, Switzerland)are treated in parallel with racemic metalaxyl or R-metalaxyl, respectively, in each case in acetonic solution. The rate of application is 0.5 mg/kg of soil sample, which corresponds to a rate of application of 0.5 kg/hectare. The results are evaluated in duplicate after 0, 1, 3, 7, 9, 15, 21 and 29 days.

[4] = 20° C., cited from earlier work
Phytophthora palmivora = details: S-enantiomer versus R-enantiomer of metalaxyl; cited from earlier work
[5] = day 7, mean of duplicate, 10080 min
[6] = day 7, single sample, 10080 min
[7] = day 21, mean of duplicate, 30240 min
[8] = day 21, single sample, 30240 min

## COCC(=O)N(c1c(C)cccc1C)C(C)C(=O)OC (racemic) [racemic metalaxyl, N-(2,6-dimethylphenyl)-N-(methoxyacetyl)-DL-alanine methyl ester]
[1]; three-leaf stage, 0.06 mg of a.i./liter, untreated control 92
  Foliar infestation: 92%
[1]; three-leaf stage, 0.2 mg of a.i./liter, untreated control 92
  Foliar infestation: 90%
[1]; three-leaf stage, 0.6 mg of a.i./liter, untreated control 92
  Foliar infestation: 96%
[1]; three-leaf stage, 2 mg of a.i./liter, untreated control 92
  Foliar infestation: 80%
[1]; three-leaf stage, 6 mg of a.i./liter (or less)
  activity: virtually no activity
[1]; three-leaf stage, 6 mg of a.i./liter, untreated control 92
  Foliar infestation: 85%
[1]; three-leaf stage, 20 mg of a.i./liter, untreated control 92
  Foliar infestation: 27%
[1]; three-leaf stage, 20 mg/liter
  activity: a more clear-cut activity is only discernible
[1]; three-leaf stage, 60 mg of a.i./liter, untreated control 92
  Foliar infestation: 0%
[1]; three-leaf stage, 200 mg of a.i./liter, untreated control 92
  Foliar infestation: 0%
[1]; two-leaf stage, 0.06 mg of a.i./liter, untreated control 96
  Foliar infestation: 96%
[1]; two-leaf stage, 0.2 mg of a.i./liter, untreated control 96
  Foliar infestation: 97%
[1]; two-leaf stage, 0.6 mg of a.i./liter, untreated control 96
  Foliar infestation: 100%
[1]; two-leaf stage, 2 mg of a.i./liter, untreated control 96
  Foliar infestation: 87%
[1]; two-leaf stage, 6 mg of a.i./liter, untreated control 96
  Foliar infestation: 76%
[1]; two-leaf stage, 20 mg of a.i./liter, untreated control 96
  Foliar infestation: 38%
[1]; two-leaf stage, 60 mg of a.i./liter, untreated control 96
  Foliar infestation: 0%
[1]; two-leaf stage, 200 mg of a.i./liter, untreated control 96
  Foliar infestation: 0%
[1]; two-leaf stage, below 20 mg of a.i./liter
  effect for practical purposes: without effect for practical purposes
[1]; two-leaf stage, below 60 mg of a.i./liter
  action against foliar infestation: does not result in a clear-cut action against foliar infestation
[2]; day 0, mean of duplicate
  Compound remaining in soil (% of applied): 90.39 % of applied
[2]; day 0, single sample
  Compound remaining in soil (% of applied): 90.41 % of applied and 90.36 % of applied
[2]; [5]
  Compound remaining in soil (% of applied): 46.23 % of applied
[2]; [6]
  Compound remaining in soil (% of applied): 47.28 % of applied and 45.17 % of applied
[2]; day 14, mean of duplicate, 20160 min
  Compound remaining in soil (% of applied): 35.71 % of applied
[2]; day 14, single sample, 20160 min
  Compound remaining in soil (% of applied): 35.88 % of applied and 35.54 % of applied
[2]; [7]
  Compound remaining in soil (% of applied): 29.20 % of applied
[2]; [8]
  Compound remaining in soil (% of applied): 29.34 % of applied and 29.06 % of applied
[2]; first-order fit
  degradation equation Ct, pre-exponential factor: 86.66
[2]; from degradation curve FIG. 1
  DT-50 (50% degradation): 10.8 days
  DT-90 (90% degradation): 35.7 days
[3]; day 0, mean of duplicate
  Rate of degradation (% of applied), mean: 97.78 % of applied
[3]; day 0, single sample
  Rate of degradation (% of applied): 98.00 % of applied and 97.56 % of applied
[3]; day 1, mean of duplicate, 1440 min
  Rate of degradation (% of applied), mean: 87.82 % of applied
[3]; day 1, single sample, 1440 min
  Rate of degradation (% of applied): 87.75 % of applied and 87.88 % of applied
[3]; day 3, mean of duplicate, 4320 min
  Rate of degradation (% of applied), mean: 80.01 % of applied
[3]; day 3, single sample, 4320 min
  Rate of degradation (% of applied): 80.32 % of applied and 79.69 % of applied
[3]; [5]
  Rate of degradation (% of applied), mean: 65.01 % of applied
[3]; [6]
  Rate of degradation (% of applied): 65.41 % of applied and 64.60 % of applied
[3]; day 9, mean of duplicate, 12960 min
  Rate of degradation (% of applied), mean: 56.26 % of applied
[3]; day 9, single sample, 12960 min
  Rate of degradation (% of applied): 55.84 % of applied and 56.68 % of applied
[3]; day 15, mean of duplicate, 21600 min
  Rate of degradation (% of applied), mean: 42.54 % of applied
[3]; day 15, single sample, 21600 min
  Rate of degradation (% of applied): 43.49 % of applied and 41.58 % of applied
[3]; [7]
  Rate of degradation (% of applied), mean: 31.99 % of applied
[3]; [8]
  Rate of degradation (% of applied): 30.77 % of applied and 33.21 % of applied
[3]; day 29, mean of duplicate, 41760 min
  Rate of degradation (% of applied), mean: 28.49 % of applied
[3]; day 29, single sample, 41760 min
  Rate of degradation (% of applied): 28.70 % of applied and 28.28 % of applied
[3]; first-order fit
  degradation equation Ct, pre-exponential factor: 93.67
[3]; first-order fit, e^(-k*t)
  degradation equation Ct, rate constant in exponent: 0.05006
[3]; from degradation curve FIG. 2
  DT-50 (50% degradation): 13.9 days
  DT-90 (90% degradation): 46.0 days
[4]; pH1
  DT-50 (hydrolytic half-life): > 200 days
[4]; pH9
  DT-50 (hydrolytic half-life): 115 days

## COCC(=O)N(c1c(C)cccc1C)[C@@H](C)C(=O)OC [S-enantiomer of metalaxyl]
Phytophthora palmivora
  ED50 inhibitory value in nucleic acid synthesis relative to R-enantiomer (times more unfavorable): approximately fifty
